We go through 15 molecules from PubChem BioAssay (NCI).

In general, TGI refers to the concentration at which net growth stops. A low value points to more potent growth arrest. For orientation: GI50 means the concentration giving 50% growth inhibition.

Several values for one entry are separate records, joined by “and”; a condition that tells them apart may be missing. Equal entries are not always repeated.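 Following 48 hours of exposure in 96-well plates, responses at five concentrations were used to interpolate endpoints linearly. GI50 = concentration required for 50% inhibition of growth. At the TGI there is no net growth.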 Where a SMILES comes first, the peptide text is derived from it. [ ]: non-standard residue; d: D form. The star is where a group is joined. ξ: configuration not given here. ξW = NC(Cc1c[nH]c2ccccc12)C(=O)O; X30 = O=C(O)[C@H]1CCC[C@H]1N*; ξF = NC(Cc1ccccc1)C(=O)O; Boc = CC(C)(C)OC(=O)*; ξK = NCCCCC(N)C(=O)O; ξT = CC(O)C(N)C(=O)O; OBn = c1ccc(CO*)cc1; tBu = CC(C)(C)* Bounds are passed on as bounds.

Experiment in all cases: DTP human tumour cell line panel, 48 h
Assay [1] relates to SK-MEL-5 melanoma.
The subject of assay [2] is K-562 leukemia.
For assay [3], the system named is IGROV1 ovarian.
In assay [4] the test system is HOP-92 NSCLC.
Assay [5] has as its system MDA-MB-231 breast.
In assay [6] the test system is MDA-N.
Assay [7] relates to SNB-75 CNS.
Assay [8] deals with NCI-H226 lung.
The test system of assay [9] is SK-MEL-28 melanoma.
Assay [10] relates to ACHN renal.
Assay [11] deals with MDA-MB-435.
Assay [12] has as its system SW-620 colon.
Assay [13] relates to HS 578T breast.
Assay [14] concerns RXF 393 renal.
The test system of assay [15] is NCI-H460 lung.
Assay [16] concerns HL-60(TB) leukemia.
Assay [17] relates to UACC-62 melanoma.
Assay [18] deals with MCF7 breast.

Take `O=C(Nn1c(-c2ccccc2)nc2ccccc2c1=O)c1ccc(O)cc1`: the TGI in assay [1], in assay [2], in [3], in [4], in assay [5] and in assay [6] was over 100 µM throughout. The TGI in [7], in assay [8], in assay [9], in assay [10], in assay [11] and in [12] was over 100 µM each time. In addition, the TGI in assay [13], in assay [14], in [15], in assay [16], in [17] and in assay [18] was over 100 µM throughout.

In the case of `Cc1cn(C2CC(N=[N+]=[N-])C(CO)O2)c(=O)n(CCCCO)c1=O` (centres undefined), the TGI in assay [2], in assay [3], in [4], in assay [5], in [6] and in [7] was over 100 µM in each case. The TGI in assay [8], in [9], in assay [10], in [11], in [12] and in assay [13] was over 100 µM each time. Further, the TGI in assay [14], in assay [15], in assay [16], in assay [17] and in [18] was over 100 µM each time.

In the case of `O=[N+]([O-])c1cc(C(F)(F)F)ccc1S(=O)(=O)N[C@@H]1CCCC[C@H]1NS(=O)(=O)c1ccc(C(F)(F)F)cc1[N+](=O)[O-]`, the TGI in assay [1] is 8.15 µM; in [2], over 36 µM; in [3], 7.5 µM; in [4], 8.31 µM; in assay [5], 8.02 µM; in assay [6], 21.6 µM. The TGI was 7.46 µM in assay [7]; over 46.6 µM in assay [8]; 33.3 µM in assay [9]; 11.2 µM in [10]; 8.07 µM in [11]; 53.8 µM in [12]. Moreover, the TGI in assay [13] is 8.27 µM; in [14] it was over 28.1 µM; in assay [15], over 100 µM; in assay [16], 3.74 µM; in assay [17], 13.4 µM; in assay [18] it was 5.2 µM.

As for `Cc1ccc(C2SC(N)=Nc3c2c(C)nn3C(=O)c2ccc(Cl)cc2)cc1` (centres undefined), the TGI in [1], in assay [2], in assay [3], in [4], in assay [5] and in [6] was over 10 µM in each case. Further, the TGI in assay [7], in assay [8], in assay [9], in assay [10], in [11] and in [12] was over 10 µM throughout. The TGI in assay [13], in assay [14], in [15], in assay [16], in [17] and in assay [18] was over 10 µM in each case.

Consider `Cc1cn(CCCCOC(=O)NC(CCCNC(N)=O)C(=O)O)c(=O)[nH]c1=O` (centres undefined), for which the TGI in assay [2], in assay [3], in assay [4], in [5], in [6] and in assay [7] was over 100 µM in each case. Also, the TGI in assay [8], in [9], in assay [10], in assay [11], in [12] and in [13] was over 100 µM throughout. Moreover, the TGI in assay [14], in assay [15], in assay [16], in assay [17] and in assay [18] was over 100 µM in each case.

With `CC(C)C(NC(=O)CNC(=O)C1CCCN1C(=O)C(NC(=O)OC(C)(C)C)C(C)C)C(=O)NCC(=O)OCc1ccccc1` (centres undefined) (Boc-VPGVG-OBn; configuration not given here), the TGI in [1], in assay [2], in assay [3], in assay [4], in assay [5] and in assay [6] was over 100 µM throughout. The TGI in [7], in [8], in assay [9], in [10], in assay [11] and in [12] was over 100 µM each time. In addition, the TGI in assay [13], in [14], in [15], in assay [16], in assay [17] and in [18] was over 100 µM each time. For the same molecule, the GI50 in assay [7] is 35.3 µM and > 100 µM.

With `COC(=O)c1c2c(cc3c1CC1(C3)Cc3ccc4c(c3C1=O)CCC4)CCC2` (centres undefined), the TGI was 20.4 µM in assay [1]; over 100 µM in [2]; over 100 µM in assay [3]; over 70.6 µM in assay [4]; 8.88 µM in assay [5]; 2.81 µM in [6]. Also, the TGI in [7] is over 25.9 µM; in assay [8], over 30 µM; in [9], over 100 µM; in [10] it was over 31.6 µM; in [11], 3.22 µM; in [12] it was over 100 µM. The TGI in assay [13] is 6.62 µM; in [14] it was 3.14 µM; in assay [15], over 100 µM; in assay [16], over 28.3 µM; in [17] it was over 25.3 µM; in assay [18], over 66.7 µM.

With `CC(=O)[C@]1(C)[C@H](C)O[C@](C)(CO)[C@H]1O[Si](C)(C)c1ccccc1`, the TGI is over 100 µM in [1]; over 100 µM in assay [2]; 41.4 µM in assay [3]; over 100 µM in assay [4]; over 100 µM in assay [5]; over 100 µM in [6]. In addition, the TGI in assay [7], in [8], in assay [9], in assay [10], in assay [11] and in [12] was over 100 µM throughout. The TGI in assay [13] was over 100 µM; in assay [14] it was 46 µM; in [15] it was over 100 µM; in assay [16] it was 72.4 µM; in [17], over 100 µM; in assay [18], over 100 µM.

With `CSc1n[nH]c2n[nH]c(C)c12`, the TGI in assay [1], in assay [2], in [3], in assay [4], in assay [5] and in assay [6] was over 100 µM throughout. The TGI in [7], in [8], in assay [9], in assay [10], in [11] and in assay [12] was over 100 µM each time. The TGI in assay [13], in assay [14], in assay [15], in assay [16], in assay [17] and in [18] was over 100 µM throughout.

For `CC(=O)O[C@H]1CC[C@@]2(C)C(=CC[C@H]3[C@@H]4C/C(=C\c5ccncc5)[C@H](OC(C)=O)[C@@]4(C)CC[C@@H]32)C1`, the TGI in assay [1] was 18.9 µM; in assay [2], 42.4 µM; in assay [3], 27.7 µM; in [4] it was 19.7 µM; in assay [5], 41.1 µM; in assay [6], 46.8 µM. For the same molecule, the TGI came out at 23.8 µM in [7]; 34.6 µM in assay [8]; 20.6 µM in [9]; 33.6 µM in assay [10]; 36.5 µM in assay [11]; 17.2 µM in assay [12]. Besides, the TGI in assay [13] was over 100 µM; in assay [14], 9.86 µM; in [15] it was 24.4 µM; in assay [16], 16.7 µM; in assay [17], 26.5 µM; in assay [18], 30.3 µM.

With `COC(=O)CCSC1=CC(=O)c2nc3ccccc3c3ccnc1c23`, the TGI is over 53.5 µM in assay [1]; over 42 µM in [2]; 34.5 µM in assay [3]; over 55.4 µM in assay [4]; over 70.7 µM in assay [5]; 87.2 µM in [6]. Besides, the TGI was over 100 µM in assay [7]; over 100 µM in [8]; 45.9 µM in assay [9]; 48.3 µM in assay [10]; over 27.5 µM in assay [11]; over 53.1 µM in assay [12]. For the same molecule, the TGI in [13] is 67.8 µM; in [14] it was 37.1 µM; in [15], 41.3 µM; in assay [16], over 24 µM; in assay [17], 21.7 µM; in [18], over 50.2 µM.

`Nc1ccc(-c2nc3ccccc3s2)cc1I`: the TGI was over 100 µM in assay [1]; over 100 µM in assay [2]; over 100 µM in assay [3]; over 54.5 µM in assay [4]; over 100 µM in assay [5]; over 100 µM in [6]. Also, the TGI in assay [7] is 99.4 µM; in assay [8], over 100 µM; in assay [9], over 100 µM; in assay [10], over 100 µM; in assay [11], over 100 µM; in assay [12], over 100 µM. Moreover, the TGI in assay [13], in assay [14], in assay [15], in assay [16], in assay [17] and in assay [18] was over 100 µM in each case.

As for `CC(C)N(C(=O)c1ccc(NCc2cc(O)ccc2O)cc1)C(C)C`, the TGI was 37.8 µM in assay [1]; over 100 µM in assay [2]; 64.8 µM in assay [3]; 24.9 µM in [4]; 32 µM in assay [5]; 42 µM in assay [6]. Further, the TGI in assay [7] was over 100 µM; in assay [8] it was 45.3 µM; in [9], 45.9 µM; in assay [10], 26.7 µM; in [11], 40.9 µM; in [12] it was 82 µM. Further, the TGI is 78.7 µM in assay [13]; 28.3 µM in [14]; 34.6 µM in assay [15]; over 100 µM in [16]; 28.9 µM in assay [17]; 87.8 µM in [18].

Take `CC(OC(C)(C)C)C(NC(=O)C(CCCCNC(=O)OC(C)(C)C)NC(=O)C(Cc1c[nH]c2ccccc12)NC(=O)C(N)Cc1ccccc1)C(=O)NC(Cc1ccccc1)C(=O)N[C@@H]1CCC[C@@H]1C(=O)O` (some centres undefined) (H-[ξF][ξW][ξK](Boc)[ξT](tBu)[ξF]-X30): the TGI is over 100 µM in assay [1]; over 100 µM in [2]; over 100 µM in assay [3]; 88.3 µM in assay [4]; over 100 µM in assay [5]; over 100 µM in [6]. For the same molecule, the TGI in [7] was over 100 µM; in assay [8], 52.4 µM; in assay [9], over 100 µM; in [10] it was over 100 µM; in assay [11], over 100 µM; in [12], over 100 µM. The TGI was 50.6 µM in assay [13]; over 100 µM in [14]; over 100 µM in assay [15]; 82.9 µM in assay [16]; 85.5 µM in assay [17]; 62.5 µM in [18].

Turning to `CN(C)C=Nc1c(Br)cc(Br)c2nonc12`, the TGI in assay [1], in [2], in [3], in assay [4], in assay [5] and in [6] was over 100 µM each time. In addition, the TGI in [7], in assay [8], in assay [9], in [10], in [11] and in assay [12] was over 100 µM in each case. The TGI in assay [13], in [14], in assay [15], in assay [16], in [17] and in assay [18] was over 100 µM throughout.
